Results as given in PubChem BioAssay (NCI).
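Test compounds were applied to cells in 96-well plates for 48 hours at 5 doses. Abbreviation: GI50, concentration required for 50% inhibition of growth. TGI: concentration producing complete growth inhibition.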

How the values were obtained:
Assay in all cases: inhibition of tumour cell growth, NCI panel, 48 h
[1] = test system: HS 578T breast
[2] = test system: OVCAR-5 ovarian
[3] = test system: SN12C renal
[4] = test system: KM12 colon
[5] = test system: NCI-H460 lung
[6] = test system: RXF 393 renal
[7] = test system: SK-OV-3 ovarian
[8] = test system: OVCAR-3 ovarian
[9] = test system: UACC-257 melanoma
[10] = test system: MOLT-4 leukemia
[11] = test system: SK-MEL-28 melanoma
[12] = test system: LOX IMVI melanoma
[13] = test system: HCT-116 colon
[14] = test system: SR leukemia
[15] = test system: UO-31 renal
[16] = test system: A549 NSCLC
[17] = test system: HOP-62 NSCLC
[18] = test system: NCI-H23 lung
[19] = test system: K-562 leukemia
[20] = test system: SNB-19 CNS
[21] = test system: PC-3 prostate
[22] = test system: UACC-62 melanoma
[23] = test system: MALME-3M melanoma
[24] = test system: OVCAR-8 ovarian
[25] = test system: 786-0 renal
[26] = test system: OVCAR-4 ovarian
[27] = test system: HT29 colon
[28] = test system: SF-539 CNS
[29] = test system: HOP-92 NSCLC
[30] = test system: SF-295 CNS
[31] = test system: SNB-75 CNS
[32] = test system: EKVX NSCLC
[33] = test system: DU-145 prostate
[34] = test system: A498 renal
[35] = test system: ACHN renal
[36] = test system: NCI-H522 lung
[37] = test system: HCT-15 colon
[38] = test system: U251 CNS
[39] = test system: MCF7 breast
[40] = test system: CAKI-1 renal
[41] = test system: CCRF-CEM leukemia
[42] = test system: SK-MEL-2 melanoma
[43] = test system: HCC-2998 colon
[44] = test system: HL-60(TB) leukemia
[45] = test system: M14 melanoma
[46] = test system: BT-549 breast
[47] = test system: MDA-MB-435
[48] = test system: SW-620 colon
[49] = test system: TK-10 renal
[50] = test system: NCI/ADR-RES ovarian
[51] = test system: T-47D breast
[52] = test system: SF-268 CNS

For `COC(C(=O)[C@@H](O)[C@@H](C)O)[C@@H]1Cc2cc3cc(O[C@H]4C[C@@H](O[C@H]5C[C@@H](O)[C@H](O)C(C)O5)[C@H](O)C(C)O4)c(C)c(O)c3c(O)c2C(=O)[C@H]1O[C@H]1C[C@@H](O[C@H]2C[C@@H](O[C@H]3C[C@@H](O)[C@@H](O)C(C)O3)[C@@H](O)C(C)O2)[C@H](O)C(C)O1` (some centres undefined), the GI50 [1] was 126 nM, the TGI [1] was 12300 nM and the GI50 [2] was 485 nM. It also gave a TGI [2] greater than 32500 nM, a GI50 [3] of 265 nM and a TGI [3] greater than 32500 nM. The GI50 [4] was 207 nM, the TGI [4] was 11300 nM and the GI50 [5] was 104 nM. It also gave a TGI [5] greater than 32500 nM, a GI50 [6] of 202 nM and a TGI [6] of 1010 nM. The GI50 [7] was 422 nM, the TGI [7] was greater than 32500 nM and the GI50 [8] was 232 nM. For the same compound, the TGI [8] was 8760 nM, the GI50 [9] was 295 nM and the TGI [9] was 2040 nM. It also gave a GI50 [10] of 1040 nM, a TGI [10] greater than 32500 nM and a GI50 [11] of 147 nM. It also gave a TGI [11] of 1930 nM, a GI50 [12] of 63.9 nM and a TGI [12] of 471 nM. It also gave a GI50 [13] of 275 nM, a TGI [13] greater than 32500 nM and a GI50 [14] of 112 nM. It also gave a TGI [14] greater than 32500 nM, a GI50 [15] of 605 nM and a TGI [15] of 4750 nM. It also gave a GI50 [16] of 674 nM, a TGI [16] greater than 32500 nM and a GI50 [17] of 189 nM. For the same compound, the TGI [17] was greater than 32500 nM, the GI50 [18] was 242 nM and the TGI [18] was 9050 nM. The GI50 [19] was 312 nM, the TGI [19] was greater than 32500 nM and the GI50 [20] was 324 nM. The TGI [20] was greater than 32500 nM, the GI50 [21] was 914 nM and the TGI [21] was greater than 32500 nM. For the same compound, the GI50 [22] was 56.4 nM, the TGI [22] was 283 nM and the GI50 [23] was 114 nM. The TGI [23] was 2410 nM, the GI50 [24] was 514 nM and the TGI [24] was greater than 32500 nM. The GI50 [25] was 305 nM, the TGI [25] was greater than 32500 nM and the GI50 [26] was 571 nM. It also gave a TGI [26] greater than 32500 nM, a GI50 [27] of 368 nM and a TGI [27] greater than 32500 nM. The GI50 [28] was 147 nM, the TGI [28] was 2820 nM and the GI50 [29] was 119 nM. The TGI [29] was 2030 nM, the GI50 [30] was 196 nM and the TGI [30] was greater than 32500 nM. It also gave a GI50 [31] of 165 nM, a TGI [31] of 3700 nM and a GI50 [32] of 780 nM. The TGI [32] was greater than 32500 nM, the GI50 [33] was 610 nM and the TGI [33] was greater than 32500 nM. For the same compound, the GI50 [34] was 54.2 nM, the TGI [34] was 278 nM and the GI50 [35] was 485 nM. It also gave a TGI [35] greater than 32500 nM, a GI50 [36] of 58 nM and a TGI [36] of 1620 nM. The GI50 [37] was 6590 nM, the TGI [37] was greater than 32500 nM and the GI50 [38] was 121 nM. It also gave a TGI [38] greater than 32500 nM, a GI50 [39] of 41.5 nM and a TGI [39] greater than 32500 nM. For the same compound, the GI50 [40] was 5780 nM, the TGI [40] was greater than 32500 nM and the GI50 [41] was 1840 nM. It also gave a TGI [41] greater than 32500 nM, a GI50 [42] of 172 nM and a TGI [42] of 1110 nM. For the same compound, the GI50 [43] was 569 nM, the TGI [43] was 7740 nM and the GI50 [44] was 6610 nM. The TGI [44] was greater than 32500 nM, the GI50 [45] was 633 nM and the TGI [45] was 7610 nM. It also gave a GI50 [46] of 149 nM, a TGI [46] of 4420 nM and a GI50 [47] of 270 nM. The TGI [47] was 2990 nM, the GI50 [48] was 715 nM and the TGI [48] was greater than 32500 nM. The GI50 [49] was 873 nM, the TGI [49] was greater than 32500 nM and the GI50 [50] was greater than 32500 nM. The TGI [50] was greater than 32500 nM, the GI50 [51] was 106 nM and the TGI [51] was greater than 32500 nM. The GI50 [52] was 207 nM and the TGI [52] was greater than 32500 nM.
